Literature values, collected in US11478001B2, “Methods of administering a pre-operative carbohydrate-rich beverage composition” (ClearFast Inc., priority 2014, dated 2022).

Conditions: short-term oral administration

## NC(=O)NCCC[C@H](N)C(=O)O [L-citrulline]
  safety and tolerability: safe and well tolerated
